Earlier results in patent US8513407B2, “Process for the preparation of N-acyl-(epi)K5-amine-O-sulfate-derivatives and products thus obtained” (GLYCORES 2000 S.r.l., priority 2002, dated 2013).

Test system: HIV
Conditions: compared with K5-O-oversulfate and heparin

## K5-N,O-oversulfate
  anti-HIV activity: more active than K5-O-oversulfate and much more active than heparin
